Experiments:
POI model mice = assay: Estrous cycle observation by vaginal smear cytology in POI model mice; assay type: in vivo
Description: Cytological observation of vaginal smear was performed daily.
The vagina of mice was exposed, and about 30 μl of normal saline was dripped into the vagina, gently aspirated onto the slide, and observed under the microscope. Staining was performed when necessary, fixed with 95% ethanol for 10 minutes, stained with hematoxylin in aqueous solution for 5-8 minutes, washed with running water for color separation, and then stained with eosin for 3 minutes. After drying. the slices were sealed with neutral gum.
The vagina of mice was exposed, and about 30 μl of normal saline was dripped into the vagina, gently aspirated onto the slide, and observed under the microscope. Staining was performed when necessary, stained with hematoxylin in aqueous solution for several minutes after drying, washed with running water for color separation, and then stained with alchhol eosin for several seconds. The slices were sealed with neutral gum.
During the estrous cycle, a series of histological and physiological changes occur in the reproductive and endocrine systems of mice. According to these changes, the estrous cycle can be divided into proestrous (P), estrous (E), metestrum (M) and diestrum (D). • 1. Observation of estrous cycle in mice of Example 1
After modeling and treatment, there were 6 mice left in the normal saline group, 6 mice left in the sodium fumarate treatment group, 7 mice left in the hyodeoxycholic acid group, and 7 mice left in the sodium fumarate and hyodeoxycholic acid combination group. […] The estrous cycle was divided into four periods (P: proestrous; E: estrous period; M: metestrum; D: diestrum) for vaginal smear cytological observation, the results are shown in FIG. 3.
The estrous cycle of mice was plotted according to the cytological results of vaginal smears observed for 12 consecutive days, and the results are shown in FIG. 4. The estrous cycle of mice is about 4 to 5 days, which is divided into four periods alternately. […] The estrous cycle of 4 mice was recovered in sodium fumarate treatment group. The estrous cycle of 3 mice was recovered in HDCA group. The estrous cycle of 6 mice was recovered in group treated with SF and HDCA.

POI mice = assay: Serum FSH level in POI mice; assay type: in vivo; details: for FSH: serum, after 12 days 100 mg/kg/d oral
From the text: Biomarkers mentioned herein, such as follicle stimulating hormone (FSH), estrogen (e.g., E2), and superoxide dismutase (SOD), malondialdehyde (MDA), relative reactive oxygen species (ROS), and lactate dehydrogenase (LDH), etc., can be detected using methods commonly known in the field. Detection methods typically cover methods that quantify the level of a biomarker in a sample (quantitative methods). Which of the following methods are suitable for qualitative and/or quantitative detection of biomarkers is generally known to those skilled in the field. Samples can be conveniently measured, for example for proteins using immunoassays such as ELISA, RIA, etc., which are commercially available.
(§1) After 12 days of administration, half of the mice in each group were sacrificed, and their blood was collected and kept still. The serum was separated after centrifugation at 4500 rpm and stored in a refrigerator at −80° C. for future use to measure levels of follicle stimulating hormone, estrogen, and the indexes of oxidative stress such as superoxide dismutase (SOD) and malondial dehyde (MDA).
as §1, with “kept in” for “kept”, “levals” for “levels”, “malondialdehyde” for “malondial dehyde”
• 1. Hormone levels in mice blood of Example 1 are measured in this embodiment.

[1] = Example 1, during drug administration, FIG. 4B

C[C@H](CCC(=O)O)[C@H]1CC[C@H]2[C@@H]3C[C@H](O)[C@@H]4C[C@H](O)CC[C@]4(C)[C@H]3CC[C@]12C [HDCA, hyodeoxycholic acid, reference compound]
Effect on mice with premature ovarian failure (conclusion from estrous cycle) (POI model mice; Example 1): preventive and therapeutic effects
Average rate of diestrum (D) in estrous cycle (POI model mice; [1]): 39.29%
Average rate of estrous stage (E) in estrous cycle (POI model mice; [1]): 22.62%
Average rate of metestrum (M) in estrous cycle (POI model mice; [1]): 14.29%
Average rate of proestrous (P) in estrous cycle (POI model mice; [1]): 23.81%
Number of mice with estrous cycle recovered (POI model mice; Example 1, 12 days observation, 6 SF, 7 HDCA, 7 SF and HDCA mice left): 3 mice
Serum FSH level compared with the normal saline group (POI mice; Example 1, FIG. 6): decreasing trend
Serum FSH level compared with the normal saline group (POI mice; Example 2, FIG. 8, not statistically significant): certain decreasing trend
FSH (POI mice; Example 1 POI mice): 4.85 ± 2.34 mIU/mL
FSH (POI mice; Example 2 POI mice): 1.65 ± 0.76 mIU/mL
